Data set [1] is described as follows: Antiproliferative activity against human EAhy926 cells assessed as reduction in cell viability measured after 48 hrs by MTT assay. In kind it is functional, cell-based. The following applies: EA.hy 926, 48 h. For orientation: Tetrazolium assays rely on reduction of a dye to a coloured formazan, in cell work by metabolically active cells.
The nature of data set [2]: Solubility of compound in water. The class given is physicochemical.
Data set [3] relates to EA.hy 926. Briefly: Antiangiogenic activity in human EAhy926 cells assessed as inhibition of VEGF-induced cell migration measured after 24 hrs by wound healing assay relative to control. In kind it is functional, cell-based.
Data set [4] deals with EA.hy 926. The data set is described as follows: Antiangiogenic activity in human EAhy926 cells assessed as inhibition of VEGF-induced capillary-like tube formation on matrigel after 24 hrs by phase-contrast microscopy. In kind it is functional, cell-based.
Data set [5] is filed under the species Gallus gallus. The data set is described as follows: Antiangiogenic activity in chicken chorioallantoic membrane at 30 uM/disc after 48 hrs by microscopic analysis. The class given is functional.

Molecules are shown by their SMILES. Activity calls are given as the source filed them. No cut-off for these calls is given here.

For `Cl.Clc1cccc(Cn2c3ccccc3c3cc(CNCCCCNCc4cc5c6ccccc6n(Cc6cccc(Cl)c6)c5cn4)ncc32)c1`, the 50% inhibitory concentration (IC50) in data set [1] worked out at 6.86 µM. Besides, the solubility in data set [2] was greater than 10000 µg/mL.

Consider `Cl.c1ccc(Cn2c3ccccc3c3cc(CNCCCCCCNCc4cc5c6ccccc6n(Cc6ccccc6)c5cn4)ncc32)cc1`, for which, in data set [1], the IC50 was 4.76 µM. The solubility in data set [2] is greater than 10000 µg/mL.

Consider `Cl.Cn1c2ccccc2c2cc(CNCCCCCCNCc3cc4c5ccccc5n(C)c4cn3)ncc21`, for which the IC50 in data set [1] was 2.58 µM. In data set [2], the solubility is greater than 10000 µg/mL.

For `Cl.c1ccc(CCCn2c3ccccc3c3cc(CNCCCCNCc4cc5c6ccccc6n(CCCc6ccccc6)c5cn4)ncc32)cc1`, the IC50 in data set [1] came out at 4.18 µM. The same compound returned a solubility in data set [2] greater than 10000 µg/mL.

With `CCCCCCCCn1c2ccccc2c2cc(CNCCCCCNCc3cc4c5ccccc5n(CCCCCCCC)c4cn3)ncc21.Cl`, the IC50 in data set [1] came out at 3.77 µM. Besides, the solubility in data set [2] is greater than 10000 µg/mL.

In the case of `CC(C)Cn1c2ccccc2c2cc(CNCCCCNCc3cc4c5ccccc5n(CC(C)C)c4cn3)ncc21.Cl`, in data set [1], the 50% inhibitory concentration (IC50) was determined as 3.08 µM. The solubility in data set [2] was greater than 10000 µg/mL.

With `Cl.Fc1ccc(Cn2c3ccccc3c3cc(CNCCCCCCNCc4cc5c6ccccc6n(Cc6ccc(F)cc6)c5cn4)ncc32)cc1`, the 50% inhibitory concentration (IC50) in data set [1] worked out at 4.08 µM. Moreover, in data set [2], the solubility is greater than 10000 µg/mL.

Consider `Cl.Fc1ccc(Cn2c3ccccc3c3cc(CNCCCCCNCc4cc5c6ccccc6n(Cc6ccc(F)cc6)c5cn4)ncc32)cc1`, for which, in data set [1], the IC50 was 4.14 µM. The compound further had a solubility in data set [2] greater than 10000 µg/mL.

With `Cl.c1ccc(Cn2c3ccccc3c3cc(CNCCCNCc4cc5c6ccccc6n(Cc6ccccc6)c5cn4)ncc32)cc1`, the IC50 in data set [1] is greater than 10 µM. This compound also had a solubility in data set [2] greater than 10000 µg/mL.

`COc1ccc(/C=C\c2cc(OC)c(OC)c(OC)c2)cc1OP(=O)(O)O` [FOSBRETABULIN]: the half-maximal inhibitory concentration (IC50) in data set [1] stood at 6.4 µM.

Take `CC(C)Cn1c2ccccc2c2cc(CNCCCCCCNCc3cc4c5ccccc5n(CC(C)C)c4cn3)ncc21.Cl`: in data set [1], the half-inhibitory concentration (IC50) is 6.3 µM. Further, in data set [2], the solubility is greater than 10000 µg/mL.

For the compound `Cc1nc(CNCCCCCCNCc2cc3c4ccccc4n(Cc4ccccc4)c3c(C)n2)cc2c3ccccc3n(Cc3ccccc3)c12.Cl`, the half-inhibitory concentration (IC50) in data set [1] came to 1.39 µM. In data set [2], this compound displayed a solubility greater than 10000 µg/mL.

In the case of `CCCCn1c2ccccc2c2cc(CNCCCNCc3cc4c5ccccc5n(CCCC)c4cn3)ncc21.Cl`, in data set [1], the concentration for half-maximal inhibition (IC50) was greater than 10 µM. The compound also returned a solubility in data set [2] greater than 10000 µg/mL.

In the case of `Cc1nc(CNCCCCNCc2cc3c4ccccc4n(CCCc4ccccc4)c3c(C)n2)cc2c3ccccc3n(CCCc3ccccc3)c12.Cl`, the IC50 in data set [1] worked out at 2.11 µM. Also, in data set [2], the solubility was greater than 10000 µg/mL.

Regarding `CC(C)n1c2ccccc2c2cc(CNCCCCCCNCc3cc4c5ccccc5n(C(C)C)c4cn3)ncc21.Cl`, the IC50 in data set [1] was 2.74 µM. The solubility in data set [2] is greater than 10000 µg/mL.

With `Cc1nc(CNCCCCNCc2cc3c4ccccc4n(Cc4cccc(Cl)c4)c3c(C)n2)cc2c3ccccc3n(Cc3cccc(Cl)c3)c12.Cl`, the IC50 in data set [1] came to 4.81 µM. Moreover, the solubility in data set [2] was greater than 10000 µg/mL.

On to `CCn1c2ccccc2c2cc(CNCCCCCCNCc3cc4c5ccccc5n(CC)c4cn3)ncc21.Cl`, for which the IC50 in data set [1] came out at 2.59 µM. The solubility in data set [2] was greater than 10000 µg/mL.

With `CCCCn1c2ccccc2c2cc(CNCCCCNCc3cc4c5ccccc5n(CCCC)c4cn3)ncc21.Cl`, the IC50 in data set [1] was 2.17 µM. Besides, the solubility in data set [2] is greater than 10000 µg/mL.

In the case of `CCCCn1c2ccccc2c2cc(CNCCCCCCNCc3cc4c5ccccc5n(CCCC)c4c(C)n3)nc(C)c21.Cl`, the IC50 in data set [1] was 2.74 µM. This compound had a solubility in data set [2] greater than 10000 µg/mL.

For the compound `Cl.Clc1cccc(Cn2c3ccccc3c3cc(CNCCCCCNCc4cc5c6ccccc6n(Cc6cccc(Cl)c6)c5cn4)ncc32)c1`, the IC50 in data set [1] is 1.06 to 1.1 µM. In addition, the inhibition result in data set [3] and in data set [4] was “Dose-dependent effect” throughout. Besides, in data set [5], the outcome was Active. The compound also displayed a solubility in data set [2] greater than 10000 µg/mL.

As for `Cc1nc(CNCCCCCCNCc2cc3c4ccccc4n(CC(C)C)c3c(C)n2)cc2c3ccccc3n(CC(C)C)c12.Cl`, the half-maximal inhibitory concentration (IC50) in data set [1] worked out at 2.68 µM. This compound also came in with a solubility in data set [2] greater than 10000 µg/mL.

On to `Cl.Clc1cccc(Cn2c3ccccc3c3cc(CNCCCCCCNCc4cc5c6ccccc6n(Cc6cccc(Cl)c6)c5cn4)ncc32)c1`, for which the IC50 in data set [1] came out at 2.98 µM. Besides, in data set [2], the solubility was greater than 10000 µg/mL.

On to `Cl.c1ccc(CCCn2c3ccccc3c3cc(CNCCCCCCNCc4cc5c6ccccc6n(CCCc6ccccc6)c5cn4)ncc32)cc1`, for which the IC50 in data set [1] amounted to 2.35 µM. Also, in data set [2], the solubility was greater than 10000 µg/mL.

Consider `CCn1c2ccccc2c2cc(CNCCCCNCc3cc4c5ccccc5n(CC)c4cn3)ncc21.Cl`, for which the IC50 in data set [1] is greater than 10 µM. Further, in data set [2], the solubility is greater than 10000 µg/mL.

Turning to `CCCCCCCCn1c2ccccc2c2cc(CNCCCCNCc3cc4c5ccccc5n(CCCCCCCC)c4cn3)ncc21.Cl`, in data set [1], the IC50 is 4.86 µM. Besides, the solubility in data set [2] was greater than 10000 µg/mL.

Regarding `CC(C)n1c2ccccc2c2cc(CNCCCCNCc3cc4c5ccccc5n(C(C)C)c4cn3)ncc21.Cl`, the half-maximal inhibitory concentration (IC50) in data set [1] came out at 2.48 µM. Further, in data set [2], the solubility was greater than 10000 µg/mL.

`CCCCn1c2ccccc2c2cc(CNCCCCCCNCc3cc4c5ccccc5n(CCCC)c4cn3)ncc21.Cl`: the IC50 in data set [1] was found to be 4.82 µM. For the same compound, the solubility in data set [2] is greater than 10000 µg/mL.

Broadly, the IC50 is the concentration at which inhibition is half-maximal. Usually solubility stands for the concentration that dissolves in the medium under given conditions.

The values above are taken from ChEMBL document CHEMBL3860054, “Design, synthesis and biological evaluation of novel alkyl diamine linked bivalent β-carbolines as angiogenesis inhibitors” (Bioorg Med Chem Lett, 2016).
